These results are taken from ChEMBL document CHEMBL3785087, “Synthesis and biological activities of indolizine derivatives as alpha-7 nAChR agonists” (Eur J Med Chem, 2016).

Where only a bound is given, the exact number is not on record here.

Common to all, as to assay type: cell-based
Assay [1] concerns the target T1, Neuronal acetylcholine receptor subunit alpha-7 (Homo sapiens, UniProt P36544). Put plainly: Agonist activity at human alpha7 nAChR expressed in xenopus oocytes preincubated for 10 mins followed by acetylcholine addition by patch clamp electrophysiological assay.
The target of assay [2] is T1, Neuronal acetylcholine receptor subunit alpha-7. As to the kind of experiment: […] to human alpha7 nAChR expressed in xenopus oocytes preincubated for 10 mins followed by acetylcholine addition by patch clamp electrophysiological assay relative to acetylcholine. More on the design: concentration or dose not given beside the values. (In general: Patch clamp records ionic current or voltage across a cell membrane.)

For assay [3] the target is unchanged. As to the kind of experiment: Displacement of [3H]-MLA from human alpha7 nAChR expressed in xenopus oocytes in presence of alpha7 nAChR positive allosteric modulator PNU-120596. Background: Displacement assays read how much labelled ligand stays bound in the presence of the test substance.
Assay [4] has the same target. Put plainly: Displacement of [3H]-MLA from human alpha7 nAChR expressed in xenopus oocytes.

T1 sequence (P36544 whole entry): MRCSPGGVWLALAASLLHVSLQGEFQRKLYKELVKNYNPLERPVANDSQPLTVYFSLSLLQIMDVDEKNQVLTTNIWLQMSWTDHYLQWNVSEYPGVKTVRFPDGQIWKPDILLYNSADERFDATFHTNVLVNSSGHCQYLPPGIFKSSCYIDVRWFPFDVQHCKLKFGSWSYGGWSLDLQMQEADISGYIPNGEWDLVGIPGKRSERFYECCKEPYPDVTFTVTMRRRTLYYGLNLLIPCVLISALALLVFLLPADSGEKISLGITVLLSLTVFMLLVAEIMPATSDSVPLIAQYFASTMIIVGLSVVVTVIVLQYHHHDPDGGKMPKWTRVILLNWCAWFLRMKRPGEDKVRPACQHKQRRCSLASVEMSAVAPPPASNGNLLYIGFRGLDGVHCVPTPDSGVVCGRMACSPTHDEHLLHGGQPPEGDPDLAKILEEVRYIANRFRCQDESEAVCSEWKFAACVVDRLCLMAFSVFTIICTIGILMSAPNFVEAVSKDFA

As to `O=C(N[C@H]1CN2CCC1CC2)c1cc(C(=O)c2ccc(Cl)cc2)n2ccccc12`, the 50% effective concentration (EC50) in assay [1] is > 20 µM. In assay [2], the Activity was < 1%.
Regarding `CCOC(=O)c1cc(C(=O)c2cccc(Cl)c2)n2ccc(C(=O)N[C@H]3CN4CCC3CC4)cc12`, the EC50 in assay [1] was > 20 µM. Further, the Activity in assay [2] was < 1%.
In assay [1], `Cc1ccccc1-c1cccc2cc(C(=O)N[C@H]3CN4CCC3CC4)cn12` registered a half-maximal effective concentration (EC50) of 4.64 µM. The same compound returned an Activity in assay [2] of 17.6%.
With `O=C(N[C@H]1CN2CCC1CC2)c1cc2cccc(Br)n2c1`, the Activity in assay [2] was 64.3%. Besides, the Ki in assay [3] was 0.0936 µM; in assay [4], 0.0149 µM.
Take `CCOC(=O)c1cc(C(=O)c2cccc([N+](=O)[O-])c2)n2ccc(C(=O)N[C@H]3CN4CCC3CC4)cc12`: the EC50 in assay [1] is > 20 µM. The Activity in assay [2] was < 1%.
As for `O=C(N[C@H]1CN2CCC1CC2)c1cc2c(-c3ccccc3)cccn2c1`, in assay [1], the 50% effective concentration (EC50) was > 20 µM. Further, the Activity in assay [2] is < 1%.
The corresponding values for `CCOC(=O)c1cc(C(=O)c2cccc(F)c2)n2ccc(C(=O)N[C@H]3CN4CCC3CC4)cc12` are > 20 µM and < 1%.
Taken in the same sequence, the figures for `O=C(N[C@H]1CN2CCC1CC2)c1cc2ccc(-c3cccs3)cn2c1` were > 20 µM and < 1%.
The corresponding values for `CCOC(=O)c1cc(C(=O)c2ccccc2)n2cc(C(=O)N[C@H]3CN4CCC3CC4)ccc12` are > 20 µM and < 1%.
For the compound `O=C(N[C@H]1CN2CCC1CC2)c1cc2cccc(-c3ccccc3)n2c1`, the half-maximal effective concentration (EC50) in assay [1] came to 3.98 µM. The Activity in assay [2] is 59.8%.
Taken in the same sequence, the figures for `O=C(N[C@H]1CN2CCC1CC2)c1cc2cccc(-c3ccsc3)n2c1` were 3.54 µM and 40.8%.
As to `CCOC(=O)c1cc(C(=O)c2ccccc2)n2cccc(C(=O)N[C@H]3CN4CCC3CC4)c12`, the EC50 in assay [1] is > 20 µM. Besides, the Activity in assay [2] was < 1%.
The corresponding values for `CCOC(=O)c1cc(C(=O)c2ccc(F)cc2)n2ccc(C(=O)N[C@H]3CN4CCC3CC4)cc12` are > 20 µM and < 1%.
Taken in the same sequence, the figures for `Cc1ccccc1-c1ccc2cc(C(=O)N[C@H]3CN4CCC3CC4)cn2c1` were > 20 µM and < 1%.
For `O=C(N[C@H]1CN2CCC1CC2)c1cc2c(Cl)cccn2c1`, the EC50 in assay [1] was > 20 µM. The Activity in assay [2] was < 1%.
For the compound `CC(C)(C)c1ccc(-c2ccc3cc(C(=O)N[C@H]4CN5CCC4CC5)cn3c2)cc1`, the concentration giving a half-maximal response (EC50) in assay [1] was > 20 µM. The Activity in assay [2] is < 1%.
Taken in the same sequence, the figures for `O=C(N[C@H]1CN2CCC1CC2)c1cc2ccc(-c3ccsc3)cn2c1` were > 20 µM and < 1%.
`CN(C)c1cccc(-c2cccc3cc(C(=O)N[C@H]4CN5CCC4CC5)cn23)c1`: the EC50 in assay [1] was > 20 µM. The Activity in assay [2] was < 1%.
Taken in the same sequence, the figures for `O=C(N[C@H]1CN2CCC1CC2)c1cc(C(=O)c2cccc(Br)c2)n2ccccc12` were > 20 µM and < 1%.
Taken in the same sequence, the figures for `O=C(N[C@H]1CN2CCC1CC2)c1cc2ccc(Cl)cn2c1` were > 20 µM and < 1%.
`O=C(N[C@H]1CN2CCC1CC2)c1cc(C(=O)c2ccccc2)n2ccccc12`: the EC50 in assay [1] was > 20 µM. Further, the Activity in assay [2] is < 1%.
Taken in the same sequence, the figures for `CCOC(=O)c1cc(C(=O)c2cccc(C(F)(F)F)c2)n2ccc(C(=O)N[C@H]3CN4CCC3CC4)cc12` were > 20 µM and < 1%.
Taken in the same sequence, the figures for `O=C(N[C@H]1CN2CCC1CC2)c1cc(C(=O)c2cccc(Cl)c2)n2ccccc12` were > 20 µM and < 1%.
Taken in the same sequence, the figures for `O=C(N[C@H]1CN2CCC1CC2)c1cc2cc(-c3ccccc3)ccn2c1` were > 20 µM and < 1%.
For `CCOC(=O)c1cc(C(=O)c2ccccc2O)n2ccc(C(=O)N[C@H]3CN4CCC3CC4)cc12`, in assay [1], the EC50 was > 20 µM. Besides, the Activity in assay [2] is < 1%.
The corresponding values for `Cc1cccc(-c2ccc3cc(C(=O)N[C@H]4CN5CCC4CC5)cn3c2)c1` are > 20 µM and < 1%.
The corresponding values for `CCOC(=O)c1cc(C(=O)c2ccc(Cl)c(Cl)c2)n2ccc(C(=O)N[C@H]3CN4CCC3CC4)cc12` are > 20 µM and < 1%.
Regarding `O=C(N[C@H]1CN2CCC1CC2)c1cc(C(=O)c2ccc(-c3ccccc3)cc2)n2ccccc12`, the EC50 in assay [1] was > 20 µM. For the same compound, the Activity in assay [2] was < 1%.
As to `CCOC(=O)c1cc(C(=O)c2ccccc2)n2ccc(C(=O)N[C@H]3CN4CCC3CC4)cc12`, in assay [1], the concentration for a half-maximal effect (EC50) was > 20 µM. The Activity in assay [2] is < 1%.
Taken in the same sequence, the figures for `O=C(N[C@H]1CN2CCC1CC2)c1cnc2ccccn12` were > 20 µM and < 1%.
Taken in the same sequence, the figures for `O=C(N[C@H]1CN2CCC1CC2)c1cc(C(=O)c2ccccc2Br)n2ccccc12` were > 20 µM and < 1%.
The corresponding values for `O=C(N[C@H]1CN2CCC1CC2)c1cc2cccc(Cl)c2s1` [ENCENICLINE] are 0.34 µM and 33.5%.
For the compound `CC(C)(C)c1ccc(-c2cccc3cc(C(=O)N[C@H]4CN5CCC4CC5)cn23)cc1`, in assay [1], a half-maximal response (EC50) required 8.6 µM. Further, the Activity in assay [2] came to 23.9%.
`O=C(N[C@H]1CN2CCC1CC2)c1cc2c(Br)cccn2c1` showed a 50% effective concentration (EC50) in assay [1] of 4.75 µM. The compound further gave an Activity in assay [2] of 75.9%.
For `O=C(N[C@H]1CN2CCC1CC2)c1cc2c(F)cccn2c1`, the concentration for a half-maximal effect (EC50) in assay [1] worked out at 2.83 µM. Further, the Activity in assay [2] is 63.7%.
Taken in the same sequence, the figures for `O=C(N[C@H]1CN2CCC1CC2)c1cc2cc(Cl)ccn2c1` were 6.92 µM and 19.6%.
The corresponding values for `O=C(N[C@H]1CN2CCC1CC2)c1cc2cccc(-c3ccc(-c4ccccc4)cc3)n2c1` are 14.1 µM and 18%.
The corresponding values for `O=C(N[C@H]1CN2CCC1CC2)c1cc2ccccn2c1` are 8.38 µM and 57.1%.
In assay [1], `O=C(N[C@H]1CN2CCC1CC2)c1cc2cccc(Cl)n2c1` displayed an EC50 of 2.49 µM. Moreover, the Activity in assay [2] was 63.2%.
In turn, `O=C(N[C@H]1CN2CCC1CC2)c1cc2cc(Br)ccn2c1` had an EC50 in assay [1] of 10.5 µM. The Activity in assay [2] was 34.7%.
In the case of `O=C(N[C@H]1CN2CCC1CC2)c1cc(C(=O)c2ccc3ccccc3c2)n2ccccc12`, the EC50 in assay [1] is > 20 µM. The Activity in assay [2] was < 1%.
The corresponding values for `O=C(N[C@H]1CN2CCC1CC2)c1cc(C(=O)c2ccccc2F)n2ccccc12` are > 20 µM and < 1%.
In assay [1], `O=C(N[C@H]1CN2CCC1CC2)c1cc2ccc(Br)cn2c1` showed a concentration for a half-maximal effect (EC50) of 9.63 µM. This compound also returned an Activity in assay [2] of 86.3%.
Taken in the same sequence, the figures for `Cc1cccc2cc(C(=O)N[C@H]3CN4CCC3CC4)cn12` were 2.14 µM and 66%.
For the compound `Cc1cccc(-c2cccc3cc(C(=O)N[C@H]4CN5CCC4CC5)cn23)c1`, in assay [1], the concentration giving a half-maximal response (EC50) is 3.99 µM. The Activity in assay [2] was determined as 63.9%.
The corresponding values for `Cc1nc2c(Br)cccn2c1C(=O)N[C@H]1CN2CCC1CC2` are > 20 µM and < 1%.
The corresponding values for `Cc1nc2ccc(F)cn2c1C(=O)N[C@H]1CN2CCC1CC2` are > 20 µM and < 1%.
As to `O=C(N[C@H]1CN2CCC1CC2)c1cc2ccc(-c3ccccc3)cn2c1`, the EC50 in assay [1] was > 20 µM. The Activity in assay [2] was < 1%.

Usually EC50 stands for the concentration that produces a half-maximal response. As usually defined, the Ki is the dissociation constant of the complex between target and ligand, obtained from inhibition or displacement.
